Reference: PubChem BioAssay (NCI)
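How tested: cells in 96-well plates exposed to compound for 48 hours at five concentrations. At the GI50, growth is halved. TGI is the concentration that stops growth completely.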

Assays:
Experiment in all cases: growth of human tumour cells (NCI), 48 h
UACC-257 melanoma = tested on: UACC-257 melanoma
SW-620 colon = tested on: SW-620 colon
OVCAR-4 ovarian = tested on: OVCAR-4 ovarian
HS 578T breast = tested on: HS 578T breast
MCF7 breast = tested on: MCF7 breast
A498 renal = tested on: A498 renal
SK-MEL-2 melanoma = tested on: SK-MEL-2 melanoma
MDA-MB-468 breast = tested on: MDA-MB-468 breast
IGROV1 ovarian = tested on: IGROV1 ovarian
SF-268 CNS = tested on: SF-268 CNS
SK-MEL-28 melanoma = tested on: SK-MEL-28 melanoma
TK-10 renal = tested on: TK-10 renal
UO-31 renal = tested on: UO-31 renal
A549 NSCLC = tested on: A549 NSCLC
U251 CNS = tested on: U251 CNS
OVCAR-8 ovarian = tested on: OVCAR-8 ovarian
SF-295 CNS = tested on: SF-295 CNS
OVCAR-5 ovarian = tested on: OVCAR-5 ovarian
HCT-15 colon = tested on: HCT-15 colon
NCI-H226 lung = tested on: NCI-H226 lung
SF-539 CNS = tested on: SF-539 CNS
M14 melanoma = tested on: M14 melanoma
SNB-75 CNS = tested on: SNB-75 CNS
NCI-H460 lung = tested on: NCI-H460 lung
MDA-MB-435 = tested on: MDA-MB-435
CAKI-1 renal = tested on: CAKI-1 renal
ACHN renal = tested on: ACHN renal
OVCAR-3 ovarian = tested on: OVCAR-3 ovarian
RPMI-8226 leukemia = tested on: RPMI-8226 leukemia
HOP-62 NSCLC = tested on: HOP-62 NSCLC
DU-145 prostate = tested on: DU-145 prostate
CCRF-CEM leukemia = tested on: CCRF-CEM leukemia
HOP-92 NSCLC = tested on: HOP-92 NSCLC
NCI-H522 lung = tested on: NCI-H522 lung
NCI-H23 lung = tested on: NCI-H23 lung
MALME-3M melanoma = tested on: MALME-3M melanoma
K-562 leukemia = tested on: K-562 leukemia
UACC-62 melanoma = tested on: UACC-62 melanoma
NCI/ADR-RES ovarian = tested on: NCI/ADR-RES ovarian
T-47D breast = tested on: T-47D breast
LOX IMVI melanoma = tested on: LOX IMVI melanoma
HL-60(TB) leukemia = tested on: HL-60(TB) leukemia
SK-MEL-5 melanoma = tested on: SK-MEL-5 melanoma
SN12C renal = tested on: SN12C renal
SNB-19 CNS = tested on: SNB-19 CNS
EKVX NSCLC = tested on: EKVX NSCLC
786-0 renal = tested on: 786-0 renal
PC-3 prostate = tested on: PC-3 prostate
HCT-116 colon = tested on: HCT-116 colon
SR leukemia = tested on: SR leukemia
COLO 205 colon = tested on: COLO 205 colon
KM12 colon = tested on: KM12 colon
HCC-2998 colon = tested on: HCC-2998 colon
RXF 393 renal = tested on: RXF 393 renal
HT29 colon = tested on: HT29 colon
SK-OV-3 ovarian = tested on: SK-OV-3 ovarian
BT-549 breast = tested on: BT-549 breast
MDA-MB-231 breast = tested on: MDA-MB-231 breast
MOLT-4 leukemia = tested on: MOLT-4 leukemia

`O=C1NC(=NC23CC4CC(CC(C4)C2)C3)N/C1=C\c1ccc2ncccc2n1` was tested, and the GI50 (UACC-257 melanoma) was 652 nM, the TGI (UACC-257 melanoma) was 5820 nM and the GI50 (SW-620 colon) was 425 nM. It also gave a TGI (SW-620 colon) of 6420 nM, a GI50 (OVCAR-4 ovarian) of 451 nM and a TGI (OVCAR-4 ovarian) of 3090 nM. For the same compound, the GI50 (HS 578T breast) was 222 nM, the TGI (HS 578T breast) was 1230 nM and the GI50 (MCF7 breast) was 367 nM. It also gave a TGI (MCF7 breast) of 5840 nM, a GI50 (A498 renal) of 175 nM and a TGI (A498 renal) of 902 nM. The GI50 (SK-MEL-2 melanoma) was 202 nM, the TGI (SK-MEL-2 melanoma) was 545 nM and the GI50 (MDA-MB-468 breast) was 201 nM. It also gave a TGI (MDA-MB-468 breast) of 781 nM, a GI50 (IGROV1 ovarian) of 257 nM and a TGI (IGROV1 ovarian) of 1410 nM. It also gave a GI50 (SF-268 CNS) of 608 nM, a TGI (SF-268 CNS) of 5630 nM and a GI50 (SK-MEL-28 melanoma) of 453 nM. For the same compound, the TGI (SK-MEL-28 melanoma) was 2910 nM, the GI50 (TK-10 renal) was 328 nM and the TGI (TK-10 renal) was 6570 nM. The GI50 (UO-31 renal) was 233 nM, the TGI (UO-31 renal) was 1970 nM and the GI50 (A549 NSCLC) was 398 nM. For the same compound, the TGI (A549 NSCLC) was 5120 nM, the GI50 (U251 CNS) was 555 nM and the TGI (U251 CNS) was 11300 nM. It also gave a GI50 (OVCAR-8 ovarian) of 632 nM, a TGI (OVCAR-8 ovarian) of 5730 nM and a GI50 (SF-295 CNS) of 251 nM. It also gave a TGI (SF-295 CNS) of 4590 nM, a GI50 (OVCAR-5 ovarian) of 743 nM and a TGI (OVCAR-5 ovarian) of 5430 nM. For the same compound, the GI50 (HCT-15 colon) was 389 nM, the TGI (HCT-15 colon) was 6880 nM and the GI50 (NCI-H226 lung) was 597 nM. The TGI (NCI-H226 lung) was 5970 nM, the GI50 (SF-539 CNS) was 128 nM and the TGI (SF-539 CNS) was 1110 nM. The GI50 (M14 melanoma) was 352 nM, the TGI (M14 melanoma) was 2930 nM and the GI50 (SNB-75 CNS) was 91.3 nM. The TGI (SNB-75 CNS) was 755 nM, the GI50 (NCI-H460 lung) was 510 nM and the TGI (NCI-H460 lung) was 5280 nM. For the same compound, the GI50 (MDA-MB-435) was 537 nM, the TGI (MDA-MB-435) was 5140 nM and the GI50 (CAKI-1 renal) was 234 nM. The TGI (CAKI-1 renal) was 1200 nM, the GI50 (ACHN renal) was 305 nM and the TGI (ACHN renal) was 1900 nM. For the same compound, the GI50 (OVCAR-3 ovarian) was 279 nM, the TGI (OVCAR-3 ovarian) was 1590 nM and the GI50 (RPMI-8226 leukemia) was 316 nM. It also gave a TGI (RPMI-8226 leukemia) of 1500 nM, a GI50 (HOP-62 NSCLC) of 514 nM and a TGI (HOP-62 NSCLC) of 4540 nM. The GI50 (DU-145 prostate) was 462 nM, the TGI (DU-145 prostate) was 7590 nM and the GI50 (CCRF-CEM leukemia) was 299 nM. The TGI (CCRF-CEM leukemia) was 3030 nM, the GI50 (HOP-92 NSCLC) was 222 nM and the TGI (HOP-92 NSCLC) was 1760 nM. The GI50 (NCI-H522 lung) was 194 nM, the TGI (NCI-H522 lung) was 1130 nM and the GI50 (NCI-H23 lung) was 283 nM. It also gave a TGI (NCI-H23 lung) of 1080 nM, a GI50 (MALME-3M melanoma) of 147 nM and a TGI (MALME-3M melanoma) of 897 nM. The GI50 (K-562 leukemia) was 546 nM, the TGI (K-562 leukemia) was > 33600 nM and the GI50 (UACC-62 melanoma) was 226 nM. The TGI (UACC-62 melanoma) was 739 nM, the GI50 (NCI/ADR-RES ovarian) was 1820 nM and the TGI (NCI/ADR-RES ovarian) was 7000 nM. The GI50 (T-47D breast) was 238 nM, the TGI (T-47D breast) was 5380 nM and the GI50 (LOX IMVI melanoma) was 416 nM. The TGI (LOX IMVI melanoma) was 4780 nM, the GI50 (HL-60(TB) leukemia) was 565 nM and the TGI (HL-60(TB) leukemia) was 3670 nM. It also gave a GI50 (SK-MEL-5 melanoma) of 425 nM, a TGI (SK-MEL-5 melanoma) of 1850 nM and a GI50 (SN12C renal) of 350 nM. The TGI (SN12C renal) was 4570 nM, the GI50 (SNB-19 CNS) was 261 nM and the TGI (SNB-19 CNS) was 4210 nM. The GI50 (EKVX NSCLC) was 321 nM, the TGI (EKVX NSCLC) was 2810 nM and the GI50 (786-0 renal) was 371 nM. The TGI (786-0 renal) was 2350 nM, the GI50 (PC-3 prostate) was 334 nM and the TGI (PC-3 prostate) was 6230 nM. The GI50 (HCT-116 colon) was 250 nM, the TGI (HCT-116 colon) was 3720 nM and the GI50 (SR leukemia) was 224 nM. For the same compound, the TGI (SR leukemia) was 779 nM, the GI50 (COLO 205 colon) was 319 nM and the TGI (COLO 205 colon) was 2940 nM. The GI50 (KM12 colon) was 683 nM, the TGI (KM12 colon) was 9840 nM and the GI50 (HCC-2998 colon) was 491 nM. For the same compound, the TGI (HCC-2998 colon) was 4450 nM, the GI50 (RXF 393 renal) was 239 nM and the TGI (RXF 393 renal) was 995 nM. It also gave a GI50 (HT29 colon) of 833 nM, a TGI (HT29 colon) of 3680 nM and a GI50 (SK-OV-3 ovarian) of 245 nM. It also gave a TGI (SK-OV-3 ovarian) of 1400 nM, a GI50 (BT-549 breast) of 163 nM and a TGI (BT-549 breast) of 687 nM. It also gave a GI50 (MDA-MB-231 breast) of 557 nM, a TGI (MDA-MB-231 breast) of 4820 nM and a GI50 (MOLT-4 leukemia) of 338 nM. The TGI (MOLT-4 leukemia) was 2020 nM.
